Earlier results, collected in patent publication US20090252791A1, “PHARMACEUTICAL COMPOSITIONS COMPRISING A TRIPTAN AND A NONSTEROIDAL ANTI-INFLAMMATORY DRUG” (priority 2008, published 2009).

Compound: CNS(=O)(=O)Cc1ccc2[nH]cc(CCN(C)C)c2c1 [Sumatriptan, 3-[2-(dimethylamino)ethyl]-N-methyl-1H-indole-5-methanesulfonamide]
- Solubility in water and in saline: readily soluble
